Columns and labels:
[1] = Determination of galactose kinetics in whole blood after oral galactose; type: in vivo, human; conditions: healthy volunteer, oral 0.3 g of galactose per kilogram of body weight in 250 ml water
Procedure: (§1) Galactose powder was supplied by Falcento. Galactose levels in whole blood were determined in a healthy volunteer after the oral consumption of 250 ml of water in which 0.3 g of galactose per kilogram of body weight had been dissolved. Measurements of galactose levels in blood were made by means of spectrophotometry at intervals of 10 minutes during the first hour and at intervals of 30 minutes for an additional 3 hours. Lactose or galactose supplementation was administered as an aqueous solution at a dose of 0.5 to 1.0 g per kilogram per day, divided into three to six daily doses (on the basis of patient preference).
Enzymatic determination of galactose levels in whole blood was performed using exogenous galactose dehydrogenase (galactose + NAD^+ → galactono-1,4-lactone + NADH + H^+). Galactose levels were determined in a healthy control after oral consumption of 0.3 g galactose (falcento AG, Kreuzlingen, Switzerland) per kilogram body weight dissolved in 250 ml water. Measurements of galactose levels were made at intervals of 10 minutes during the first hour and at intervals of 30 minutes for additional three hours.
3000 µl of galactose buffer reagent (Instruchemie, Delfzijl, Netherlands), 100 µl of galactose NAD reagent (Instruchemie) and 200 µl of a diluted calibrator (Instruchemie) were mixed and the absorbance against distilled water was read at a temperature of 25 °C and a wavelength of 340 nm (optical density 1).
500 µl of each whole blood sample were added to 1000 µl perchloric acid (0.33 mol/l) for deproteinization and then centrifuged. 200 µl of the supernatant were added to 3000 µl galactose buffer reagent, 100 µl galactose NAD reagent and absorbance was read (optical density 1). After supplementation of 20 µl galactose start reagent and incubation at 25 °C for 15 min, the optical density 2 was measured in both, the calibrator and blood samples.
For manual calculation of the galactose concentration the following formula was used: galactose(mmol/l) = (ΔO.D.controlorsample)/(ΔO.D.calibrator) × concentrationofcalibrator [formula]

[2] = system: PGM1-deficient fibroblasts; experiment: Assay for cellular glycosylation efficiency using modified GFP (Glyc-ER-GFP); type: cell-based, human; conditions: fibroblasts from patients, galactose alone added to culture medium
Procedure: (§2) Analysis of transferrin glycosylation was performed on serum samples with the use of isoelectric focusing, (3,4) sodium dodecyl sulfate-polyacrylamide-gel electrophoresis (SDS-PAGE), (3) or liquid chromatography-mass spectrometry (9) (Fig. 3, and the Examples II). […] Green fluorescent protein engineered for retention in the endoplasmic reticulum was modified to contain an N-glycosylation site that, when glycosylated, causes loss of fluorescence (Glyc-ER-GFP). (11) Glyc-ER-GFP was transfected into patient fibroblasts in culture, and fluorescence was measured by means of quantitative microscopy (see the Examples II).
Glycosylation efficiency was measured using Glyc-ER-GFP constructs as described.^11 In brief, cells were seeded in a 96 wells-plate at 40% confluence. 24h later, they were incubated in medium without or with addition of supplements (e.g. 0-1 mM galactose +/-100µM uridine) for 2 days with medium replacement every day. Cells were then transfected by the Glyc-ER-GFP and maintained in the same culture media for two more days. Cells were fixed using 4% paraformaldehyde/4% sucrose and stained by Hoechst 33342 (Thermo scientific). Plates were analyzed using a high-content microscope, IN Cell 1000 (GE Healthcare), and data were analyzed with the CytoSeer software (Vala Sciences) using a protein mask.

transferrin = experiment: Dietary supplementation in patients: transferrin glycosylation; type: in vivo, human; conditions: for transferrin glycosylation by mass spectrometry: six patients, 0.5 to 1.0 g per kilogram per day, within 2 weeks
Procedure: as §2, §1
For high-resolution mass spectrometry of transferrin (Fig. 3), a 5 µl serum sample was incubated with anti-transferrin beads as described.^8 The eluate was analyzed on a microfluidic 6540 LC-chip-QTOF instrument (Agilent Technologies) using a C8 protein chip. Data analysis was performed using Agilent Mass Hunter Qualitative Analysis Software B.04.00. The Agilent BioConfirm Software was used to deconvolute the charge distribution of raw data to reconstructed mass data. For confirmation of the structural annotations, samples were processed for analysis of tryptic transferrin peptides by MALDI-TOF as described^9 (results not shown).

total serum N-glycome = experiment: Dietary supplementation in patients: total serum N-glycome by capillary electrophoresis; type: in vivo, human; conditions: patients with galactose supplementation
From the text: • Figure 1. Glycoprotein Biosynthesis and Congenital Disorders of Glycosylation. For the N-glycosylation of proteins, a glycan precursor is assembled from monosaccharide units on an anchoring isoprenoid alcohol, dolichol, in the membrane of the endoplasmic reticulum. Each glycan precursor is then transferred en bloc to a specific asparagine residue in the nascent peptide chain of a protein being synthesized by a ribosome and entering the endoplasmic reticulum. Because transferrin (brown line) is abundant in blood, it is used as an indicator of the efficiency of the glycosylation system. Transferrin has two glycosylation sites. The protein is transported to the Golgi apparatus, and the glycans are modified in multiple steps. Each fully modified glycan is terminated with two negatively charged sialic acid residues. Thus, the transferrin molecule carries a total of four sialic acid residues. If a genetic defect impairs synthesis of the precursor glycan in the endoplasmic reticulum, one or both glycosylation sites of transferrin may remain unoccupied (white arrow). Such defects are classified as congenital disorders of glycosylation type I (CDG-I). […] CDG-I defects are easily identified owing to the occurrence of transferrin isoforms with two or no sialic acid residues detected by means of IEF. […]

[3] = Dietary supplementation in patients: hormones and clinical course; type: in vivo, human; conditions: for levels of luteinizing hormone, increased by a factor of: initially 2.5th percentile
Procedure: as §1

skin fibroblasts = experiment: Evaluation of glycogen by electron microscopy in fibroblasts; type: cell-based, human; conditions: 5.5 mM sugar in medium, 50 h
Procedure: For electron microscopy, skin fibroblasts of patients and controls were cultured to a confluence of 50 to 70% in M199 medium (Life Technologies) supplemented with 10% fetal calf serum and 1% penicillin/streptomycin in a humidified atmosphere containing 5% CO2 at 37°C. Cells were switched to a medium consisting of DMEM supplemented with 4mM L-glutamine (Invitrogen), 10% dialyzed FCS (Gibco), 1mM uridine (Calbiochem), and either 5.5 mM D-glucose (Sigma), or 5.5 mM D-Galactose (Merck). After 50 h of incubation, cells were centrifuged for 10 min at 1000rpm and fixed by gentle addition of 2% glutaraldehyde buffered with 0.1 M sodium cacodylate pH7.4 after removing the medium. After at least 4h fixation, the pellets were very carefully taken off and post-fixed in 1% osmium tetroxide in Palade buffer pH 7.4 with 1% potassium hexacyanoferrate(III)-trihydrate, and after dehydration in ethanol and propylene oxide, embedded in Epon for electron microscopy. Semithin 1µm thick transverse sections were stained with 1% Toluidine Blue. Ultrathin sections were stained with uranyl acetate and lead citrate and examined on a JEOL 1200 EX\II. […] Cells with small darkly staining aggregates of glycogen were counted as positive. Fibroblasts were prepared for evaluation of glycogen by electron microscopy as described above. The presence of glycogen in control and patient fibroblasts cultured in the presence of either glucose or galactose was assessed by electron microscopy. Cells (of 115-160 total) with small darkly staining aggregates of glycogen were counted as positive. Aggregates are typically more common in glycogen storage diseases (picture for hepatocytes s. Fig. 7, panel C, D).

[4] = Patients 2 and 6, after initiation of galactose treatment

plasma concentration of galactose, maximum [1] [mM] | time after which galactose decreased to baseline levels [1] [h] | time of maximum galactose concentration [1] [min] | Compound | glycosylation of Glyc-ER-GFP [2] | tetrasialo-transferrin (transferrin; Patient 1.1, daily 0.5 g per kg b.w. in 3 portions, doubled after one week, HPLC, within a few weeks, 50 before) [%] | transferrin glycosylation by mass spectrometry (transferrin) | glycosylation of the total serum N-glycome (total serum N-glycome) | levels of luteinizing hormone, increased by a factor of ([3]; Patient 2, after initiation of galactose supplementation) | levels of luteinizing hormone, increased by a factor of ([3]; Patient 6, after initiation of galactose supplementation) | hypogonadotropic hypogonadism ([3]; Patients 2 and 6, after initiation of galactose supplementation) | cardiac function [3, 4] | episodes of rhabdomyolysis [3, 4] | ultrasonography of the liver ([3]; Patients 2 and 6, every 3 months during galactose supplementation) | levels of follicle-stimulating hormone (FSH) ([3]; Patients 2 and 6, galactose supplementation) | % of cells with glycogen aggregates (skin fibroblasts; Control 1 fibroblasts) [%] | % of cells with glycogen aggregates (skin fibroblasts; Control 2 fibroblasts) [%] | % of cells with glycogen aggregates (skin fibroblasts; PGM1-6 patient fibroblasts) [%] | % of cells with glycogen aggregates (skin fibroblasts; PGM1-7 patient fibroblasts) [%]
0.7 | 2 | 50 | O=C[C@H](O)[C@@H](O)[C@@H](O)[C@H](O)CO [galactose] | substantially enhanced | 70 | improved substantially | substantial improvement | 5 | 10 | resolved within a few weeks | remained stable | no further episodes | no increase in echogenicity and no signs of cholestasis | normalized | 2 | 4 | <1 | <1
– | – | – | OC[C@H]1O[C@@H](O[C@H]2[C@H](O)[C@@H](O)C(O)O[C@@H]2CO)[C@H](O)[C@@H](O)[C@H]1O (stereo partly shown) [lactose] | – | – | improved substantially | – | – | – | – | – | – | – | – | – | – | – | –
